Measurements from patent US11530206B2, “Phenylaminopyrimidine amide autophagy inhibitors and methods of use thereof” (Deciphera Pharmaceuticals, LLC, priority 2019, dated 2022).
pIC50: −log10 of the molar value.

Legend:
ULK kinase [1] = assay: pATG13 levels of mutant KRas A549 cells after treatment with ULK inhibitors in combination with trametinib (ELISA); assay type: cell-based, human; settings: A549 (KRAS mutant) lung cancer cells, 250 nM trametinib, overnight, pS318-ATG13
Outline: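 Lysates with phosphatase/protease inhibitors assayed by pATG13 ELISA, A450 minus A540 background and blank-corrected. % ATG13 phosphorylation versus DMSO controls fitted to IC50.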

ULK kinase [2] = assay: pATG13 levels of mutant KRas MiaPaCa-2 cells after treatment with ULK inhibitors in combination with trametinib (ELISA); assay type: cell-based, human; settings: MiaPaCa-2 pancreatic cancer cells, 250 nM trametinib, overnight, pS318-ATG13
Outline: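 MiaPaCa-2 cells in DMEM with 10% FBS and 2.5% horse serum were pretreated with trametinib or DMSO, then given a test-compound dose response overnight at 37° C. Lysates were assayed for phospho-ATG13 by ELISA (A450 minus A540 background, blank-corrected). % phosphorylation was calculated relative to controls and fitted to IC50.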

ULK kinase [3] = assay: pATG13 levels of mutant HRas T24 cells after treatment with ULK inhibitors in combination with trametinib (ELISA); assay type: cell-based, human; settings: T24 urinary bladder cancer cells (mutant HRas), 250 nM trametinib, overnight, pS318-ATG13
Procedure: T24 human urinary bladder cancer cells (25000 cells/well) were added to a 96-well tissue-culture treated plate in 100 μL of pre-warmed DMEM medium supplemented with 10% characterized fetal bovine serum (Invitrogen, Carlsbad, Calif.), 100 units/mL penicillin G, and 100 μg/mL streptomycin and allowed to grow overnight at 37° C., 5% CO2, and 95% humidity. The following day, 100 μL of media containing trametinib or DMSO as a control was added to wells. […] A dose response of a test compound (0.5 μL per well) was added. DMSO (0.5 μL) was added to control wells. The plate was briefly shaken to mix wells and then incubated at 37° C. overnight. The next day, the media was aspirated and cells were washed with Dulbecco's Phosphate Buffered Saline (Gibco). Cells were lysed using MPER lysis buffer (Pierce, Rockford, Ill.) containing Halt Phosphatase and Protease Inhibitors (Pierce, Rockford, Ill.) and Phosphatase inhibitor cocktail 2 (Sigma, St. Louis, Mo.) at 4° C. for 10 minutes with shaking.
Plate wells were washed with ELISA wash buffer. Cell lysate was added to wells and incubated at room temperature for 2 hours. Plate wells were washed with ELISA wash buffer. […] Plate wells were washed with ELISA wash buffer. […] Plate wells were washed with ELISA wash buffer. […] The reaction was stopped with 2N Sulfuric Acid. The plate was analyzed at on a plate reader measuring absorbance at 450 nm and 540 nm (background). Signal was calculated by first subtracting the background absorbance at 540 nm from the absorbance at 450 nm for each well. Next, the background corrected absorbance at 450 nm from blank wells was subtracted from test wells. Data was compared to control wells to determine % ATG13 phosphorylation. GraphPad Prism was used to calculate IC50 values.

LRRK2 kinase = target: T1, LRRK2 kinase (Homo sapiens, UniProt Q5S007); assay: Biochemical assay for LRRK2 (coupled pyruvate kinase/lactate dehydrogenase assay); settings: 26.4 nM LRRK2 (residues 970-2528), peptide substrate, 1 mM ATP
T1 construct: purchased Thermo Fisher
Outline: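 Recombinant LRRK2 (26.4 nM) with 0.1 mM peptide substrate and 1 mM ATP in Tris pH 7.5/MgCl2 buffer; ADP production coupled via PK/LDH to NADH oxidation, A340 read continuously 6 h at 30 °C. Rates from 2–3 h window converted to % inhibition versus no-compound and reference-inhibitor controls; IC50 fitted.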

T1 sequence (Q5S007 with tags, fused parts or gaps): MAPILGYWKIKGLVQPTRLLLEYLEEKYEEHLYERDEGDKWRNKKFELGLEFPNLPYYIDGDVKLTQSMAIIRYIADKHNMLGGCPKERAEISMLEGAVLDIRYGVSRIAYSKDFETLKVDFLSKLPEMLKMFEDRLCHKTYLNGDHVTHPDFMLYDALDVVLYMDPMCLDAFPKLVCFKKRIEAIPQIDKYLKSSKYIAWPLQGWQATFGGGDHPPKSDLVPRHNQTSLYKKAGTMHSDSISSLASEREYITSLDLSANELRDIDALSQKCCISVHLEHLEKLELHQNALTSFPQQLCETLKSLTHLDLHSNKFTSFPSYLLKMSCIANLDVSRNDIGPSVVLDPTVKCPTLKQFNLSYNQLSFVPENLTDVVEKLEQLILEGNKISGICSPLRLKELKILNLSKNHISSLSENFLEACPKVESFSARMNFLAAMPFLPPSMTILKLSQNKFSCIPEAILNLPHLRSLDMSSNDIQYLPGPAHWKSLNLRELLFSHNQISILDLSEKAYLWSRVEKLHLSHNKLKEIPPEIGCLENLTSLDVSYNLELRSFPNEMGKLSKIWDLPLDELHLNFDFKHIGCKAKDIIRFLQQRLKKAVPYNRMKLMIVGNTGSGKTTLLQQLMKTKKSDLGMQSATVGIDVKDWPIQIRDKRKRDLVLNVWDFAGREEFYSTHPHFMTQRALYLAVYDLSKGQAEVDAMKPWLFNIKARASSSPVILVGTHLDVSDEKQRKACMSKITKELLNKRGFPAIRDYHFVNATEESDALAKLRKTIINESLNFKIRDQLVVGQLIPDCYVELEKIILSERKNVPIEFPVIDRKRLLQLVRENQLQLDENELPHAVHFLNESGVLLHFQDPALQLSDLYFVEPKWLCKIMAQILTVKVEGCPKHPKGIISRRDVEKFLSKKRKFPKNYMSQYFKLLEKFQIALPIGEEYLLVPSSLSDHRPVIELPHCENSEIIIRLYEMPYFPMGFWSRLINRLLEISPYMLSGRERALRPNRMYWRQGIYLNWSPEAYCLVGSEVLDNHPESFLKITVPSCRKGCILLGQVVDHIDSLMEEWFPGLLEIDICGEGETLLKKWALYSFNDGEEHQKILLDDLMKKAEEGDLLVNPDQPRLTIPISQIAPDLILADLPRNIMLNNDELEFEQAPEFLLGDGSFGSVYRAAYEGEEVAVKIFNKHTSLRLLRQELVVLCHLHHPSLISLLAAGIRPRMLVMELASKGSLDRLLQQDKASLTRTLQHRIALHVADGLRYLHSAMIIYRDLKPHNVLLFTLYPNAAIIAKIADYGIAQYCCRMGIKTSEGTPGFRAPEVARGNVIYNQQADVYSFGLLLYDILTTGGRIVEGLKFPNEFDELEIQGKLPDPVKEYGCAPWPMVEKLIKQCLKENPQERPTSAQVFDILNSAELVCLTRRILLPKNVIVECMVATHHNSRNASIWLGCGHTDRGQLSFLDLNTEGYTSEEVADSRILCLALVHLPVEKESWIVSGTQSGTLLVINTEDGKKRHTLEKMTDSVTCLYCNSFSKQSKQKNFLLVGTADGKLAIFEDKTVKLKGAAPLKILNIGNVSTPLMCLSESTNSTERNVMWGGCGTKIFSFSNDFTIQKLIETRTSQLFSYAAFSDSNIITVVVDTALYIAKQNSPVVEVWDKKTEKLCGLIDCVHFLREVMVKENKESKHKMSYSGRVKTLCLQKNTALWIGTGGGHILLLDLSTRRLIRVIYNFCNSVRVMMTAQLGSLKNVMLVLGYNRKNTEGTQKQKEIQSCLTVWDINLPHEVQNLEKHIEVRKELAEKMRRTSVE

pIC50 (ULK kinase [1])	pIC50 (ULK kinase [2])	pIC50 (ULK kinase [3])	pIC50 (LRRK2 kinase)	SMILES
7.00 to 8.00	6.52 to 7.00	6.52 to 7.00	7.00 to 9.00	O=C1OCCCN1CCCNc1nc(Nc2ccc(N3CCNCC3)cc2C2CC2)ncc1C(F)(F)F [Example 99]
7.00 to 8.00	7.00 to 8.00	6.52 to 7.00	6.52 to 7.00	CCc1cc(N2CCNCC2)ccc1Nc1ncc(C(F)(F)F)c(NCCCN2CCOCCC2=O)n1 [Example 84]
7.00 to 8.00	7.00 to 8.00	7.00 to 8.00	7.00 to 9.00	CN1CCN(c2ccc(Nc3ncc(C(F)(F)F)c(NCCCN4CCCOC4=O)n3)c(C3CC3)c2)CC1 [Example 41]
7.00 to 8.00	7.00 to 8.00	6.52 to 7.00	7.00 to 9.00	CCc1cc(N2CCN(C)CC2)c(F)cc1Nc1ncc(C(F)(F)F)c(NCCCN2CCOCCC2=O)n1 [Example 86]
7.00 to 8.00	7.00 to 8.00	–	7.00 to 9.00	CN1CCN(c2ccc(Nc3ncc(C(F)(F)F)c(NCCCN4CCCOCC4=O)n3)c(C3CC3)c2)CC1 [Example 52]
7.00 to 8.00	7.00 to 8.00	7.00 to 8.00	6.52 to 7.00	CCc1cc(N2CCN(C)CC2)ccc1Nc1ncc(Br)c(NCCCN2CCOCCC2=O)n1 [Example 76]
7.00 to 8.00	7.00 to 8.00	7.00 to 8.00	7.00 to 9.00	CCc1cc(N2CCN(C)CC2)ccc1Nc1ncc(C(F)(F)F)c(NCCCN2CCCOC2=O)n1 [Example 39]
7.00 to 8.00	7.00 to 8.00	6.52 to 7.00	6.52 to 7.00	CCc1cc(N2CCNCC2)ccc1Nc1ncc(C(F)(F)F)c(NCCCN2CCCOC2=O)n1 [Example 46]
7.00 to 8.00	7.00 to 8.00	7.00 to 8.00	7.00 to 9.00	CN1CCN(c2ccc(Nc3ncc(C(F)(F)F)c(NCCCN4CCCCC4=O)n3)c(C3CC3)c2)CC1 [Example 14]
7.00 to 8.00	7.00 to 8.00	7.00 to 8.00	7.00 to 9.00	CN1CCN(c2ccc(Nc3ncc(C(F)(F)F)c(NCCCN4CCOCCC4=O)n3)c(C3CC3)c2)CC1 [Example 70]
6.52 to 7.00	7.00 to 8.00	–	6.52 to 7.00	CN1CCN(c2ccc(Nc3ncc(Cl)c(NCCCN4CCCOCC4=O)n3)c(C3CC3)c2)CC1 [Example 55]

SMILES	pIC50 (ULK kinase [1])	pIC50 (ULK kinase [2])	pIC50 (ULK kinase [3])	pIC50 (LRRK2 kinase)
CCc1cc(N2CC3CCC(C2)N3C)ccc1Nc1ncc(C(F)(F)F)c(NCCCN2CCOCCC2=O)n1 [Example 74]	7.00 to 8.00	7.00 to 8.00	7.00 to 8.00	6.22 to 6.52
